# Assay results published in patent US12226480B2, “Combination drug including TLR7 agonist” (SUMITOMO PHARMA CO., LTD., priority 2017, dated 2025).
# Assays:
# [1] = system: MHC class I (H-2Kd); assay: MHC class I (H-2Kd) on tumor by flow cytometry (anti-PD-1 study); format: in vivo, Balb/c mice; settings: tumor on 23rd day, CD45-negative H-2Kd-positive fraction; Compound 1 5 mg/kg iv, anti-PD-1 antibody 200 μg ip
# Procedure: 1×10^6 Cells of murine colon cancer cell line CT26 (ATCC) were transplanted to the ventral flank of 48 female 6-week-old Balb/c mice. Five days later, the mice were divided into four groups. In vehicle administration group, saline was intravenously administered once a week, and 200 μg of Rat IgG2a isotype control antibody (Bioxcell) was intraperitoneally administered twice a week. In Compound 1 administration group, Compound 1 was intravenously administered in a dose of 5 mg/kg once a week, and 200 μg of Rat IgG2a isotype control antibody (Bioxcell) was intraperitoneally administered twice a week. In anti-PD-1 antibody administration group, 200 μg of anti-PD-1 antibody (Bioxcell) was intraperitoneally administered twice a week. In combination group of Compound 1 and anti-PD-1 antibody, Compound 1 was intravenously administered in a dose of 5 mg/kg once a week, and 200 μg of anti-PD-1 antibody (Bioxcell) was intraperitoneally administered twice a week. After the transplantation of the tumor cell, the tumor was picked out on the 23rd day, and a cell suspension of the tumor was prepared by using a tumor dissociation kit (Miltenyi) and a gentle macs dissociater (Miltenyi). The cell suspension was stained with fluoresceinated anti-CD45 antibody and anti-H-2Kd antibody, and H-2Kd on the cancer cell was detected as CD45-negative and H-2Kd-positive fractions by flow cytometry method.
# [2] = system: effector memory T cell; assay: Ratio of effector memory T cell in CD8-positive tumor-infiltrating lymphocytes by FACS (anti-CTLA-4 study); format: in vivo, Balb/c mice; settings: tumor on 26th day, CD8+ CD62L- CD127+, compared with the vehicle administration group, Compound 1 5 mg/kg iv, anti-CTLA-4 antibody 200 μg ip
# Procedure: (§1) 1×10^6 Cells of murine colon cancer cell line CT26 (ATCC) were transplanted to the ventral flank of 40 female 6-week-old Balb/c mice. Seven days later, the mice were divided into four groups. In vehicle administration group, saline was intravenously administered once a week, and 200 μg of Rat IgG2a isotype control antibody (Bioxcell) was intraperitoneally administered twice a week. In Compound 1 administration group, Compound 1 was intravenously administered in a dose of 5 mg/kg once a week, and 200 μg of Rat IgG2a isotype control antibody (Bioxcell) was intraperitoneally administered twice a week. In anti-CTLA-4 antibody administration group, 200 μg of anti-CTLA-4 antibody (Bioxcell) was intraperitoneally administered twice a week. In combination group of Compound 1 and anti-CTLA-4 antibody, Compound 1 was intravenously administered in a dose of 5 mg/kg once a week, and 200 μg of anti-CTLA-4 antibody (Bioxcell) was intraperitoneally administered twice a week. After the transplantation of the tumor cell, the tumor was picked out on the 26th day, and a cell suspension of the tumor was prepared by using a tumor dissociation kit (Miltenyi) and a gentle macs dissociater (Miltenyi). […] The obtained cell suspension was stained with fluoresceinated anti-CD8, anti-CD62L, and anti-CD127 antibodies, and analyzed by flow cytometry (FACS) method. […]
# [3] = system: murine colon cancer cell line CT26; assay: Antitumor activity of combination use of anti-CTLA-4 antibody and TLR7 agonist (tumor volume); format: in vivo; settings: CT26 in Balb/c mice, until 23rd day; Compound 1 5 mg/kg iv once a week, anti-CTLA-4 antibody 200 μg ip twice a week; versus vehicle administration group
# Procedure: 1×10^6 Cells of murine colon cancer cell line CT26 (ATCC) were transplanted to the ventral flank of 40 female 7-week-old Balb/c mice. Seven days later, the mice were divided into four groups. In vehicle administration group, saline was intravenously administered once a week, and 200 μg of Rat IgG2a isotype control antibody (Bioxcell) was intraperitoneally administered twice a week. In TLR7 agonist administration group, Compound 1 was intravenously administered in a dose of 5 mg/kg once a week, and 200 μg of Rat IgG2a isotype control antibody (Bioxcell) was intraperitoneally administered twice a week. In anti-CTLA-antibody administration group, 200 μg of anti-CTLA-4 antibody (Bioxcell) was intraperitoneally administered twice a week. In combination group of Compound 1 and anti-CTLA-4 antibody, Compound 1 was intravenously administered in a dose of 5 mg/kg once a week, and 200 μg of anti-CTLA-4 antibody (Bioxcell) was intraperitoneally administered twice a week. After the transplantation of the tumor cell, the tumor volume was measured twice a week, and the body weight was checked once a week until the 23rd day. The tumor volume was obtained by measuring long axis and short axis of the tumor and calculating by a math formula of (short axis)×(short axis)×(long axis)×0.5.
# The ordinate denotes tumor volume, and the abscissa denotes elapsed days from the transplantation of the tumor cell.
# [4] = system: murine colon cancer cell line CT26; assay: Antitumor activity of combination use of anti-PD-1 antibody and TLR7 agonist (tumor volume); format: in vivo; settings: CT26 in Balb/c mice, until 23rd day; Compound 1 5 mg/kg iv once a week, anti-PD-1 antibody 200 μg ip twice a week; versus vehicle administration group
# Procedure: 1×10^6 Cells of murine colon cancer cell line CT26 (ATCC) were transplanted to the ventral flank of 48 female 6-week-old Balb/c mice. Five days later, the mice were divided into four groups. In vehicle administration group, saline was intravenously administered once a week, and 200 μg of Rat IgG2a isotype control antibody (Bioxcell) was intraperitoneally administered twice a week. In TLR7 agonist administration group, a TLR7 agonist, N-{4-[(2-amino-4-{[(3S)-1-hydroxyhexan-3-yl]amino}-6-methylpyrimidin-5-yl)methyl]-3-methoxybenzyl}-N-(2,2,2-trifluoroethyl)glycine (hereinafter, referred to as “Compound 1”) was administered into a vein in a dose of 5 mg/kg once a week, and 200 μg of Rat IgG2a isotype control antibody (Bioxcell) was intraperitoneally administered twice a week. In anti-PD-1 antibody administration group, 200 μg of anti-PD-1 antibody (Bioxcell) was intraperitoneally administered twice a week. In combination group of Compound 1 and anti-PD-1 antibody, Compound 1 was intravenously administered in a dose of 5 mg/kg once a week, and 200 μg of anti-PD-1 antibody (Bioxcell) was intraperitoneally administered twice a week. After the transplantation of the tumor cell, the tumor volume was measured twice a week, and the body weight was checked once a week until the 23rd day. […]
# [5] = system: effector memory T cell; assay: Ratio of effector memory T cell in CD8-positive tumor-infiltrating lymphocytes by FACS (anti-PD-1 study); format: in vivo, Balb/c mice; settings: tumor on 23rd day, CD8+ CD62L- CD127+, compared with the vehicle administration group, Compound 1 5 mg/kg iv, anti-PD-1 antibody 200 μg ip
# Procedure: as §1, with “48” for “40”, “Five” for “Seven”, “anti-PD-1” for “anti-CTLA-4”, “23rd” for “26th”, “dissociates” for “dissociater”
smiles,measurement,setting,value
"CCC[C@@H](CCO)Nc1nc(N)nc(C)c1Cc1ccc(CN(CC(=O)O)CC(F)(F)F)cc1OC [Compound 1, N-{4-[(2-amino-4-{[(3S)-1-hydroxyhexan-3-yl]amino}-6-methylpyrimidin-5-yl)methyl]-3-methoxybenzyl}-N-(2,2,2-trifluoroethyl)glycine]",mean fluorescent intensity (MFI) of H-2Kd,[1],not so different from that of the vehicle administration group
same,ratio of effector memory T cell in CD8-positive cell,[2],did not increase
same,tumor-volume variation / tumor growth inhibition,[3],not so different from that of the vehicle administration group
same,tumor-volume variation / tumor growth inhibition,[4],tumor growth inhibition was observed
same,ratio of effector memory T cell in CD8-positive cell,[5],did not increase
